Values after ≈ are worked out from the molar mass of the structure shown.
Experiments:
[1] = Inhibition of Mycobacterium tuberculosis Cut6
[2] = system: Mycobacteroides abscessus; assay: Antibacterial activity against Mycobacterium abscessus CIP 104536T smooth morphotype incubated for 1 to 14 days; format: functional; details: time 1-14 day
[3] = (§1) Antibacterial activity against Mycobacterium Mycobacterium abscessus CIP 104536T infected in mouse RAW264.7 cells assessed as […] incubated for 4 to 5 days; format: functional; details: Mycobacteroides abscessus, time 4-5 day
[4] = system: Mycobacteroides abscessus; assay: Antibacterial activity against Mycobacterium abscessus CIP 104536T rough morphotype incubated for 1 to 14 days; format: functional; details: time 1-14 day
RAW264.7 [5] = assay: Cytotoxicity against mouse RAW264.7 cells; format: functional
[6] = system: Mycobacterium tuberculosis; assay: Inhibition of Mycobacterium tuberculosis Lipy assessed as pomegranate oil TAG lipolysis at 20 times molar excess of inhibitor concentration related to 1 mole of enzyme incubated for 30 mins by microtitre plate assay
[7] = system: Mycobacterium tuberculosis; assay: Inhibition of Mycobacterium tuberculosis Lipy assessed as pomegranate oil TAG lipolysis at 4 times molar excess of inhibitor concentration related to 1 mole of enzyme incubated for 30 mins by microtitre plate assay
[8] = system: Mycobacterium tuberculosis; assay: Inhibition of Mycobacterium tuberculosis Lipy incubated for 30 mins by UV spectrophotometric analysis
RAW264.7 [9] = assay: as §1; format: functional; details: Mycobacteroides abscessus, time 4-5 day
Mycobacterium = assay: Antibacterial activity against Mycobacterium by REMA assay; format: functional
[10] = system: Mycobacterium tuberculosis; assay: Antibacterial activity against Mycobacterium tuberculosis; format: functional
[11] = system: Mycobacterium tuberculosis; assay: Antibacterial activity against Mycobacterium tuberculosis incubated for 2 to 3 weeks; format: functional; details: time 2-3 weeks
[12] = Antibacterial activity against Mycobacterium Mycobacterium abscessus CIP 104536T infected in mouse RAW264.7 cells assessed as bacterial viability at 30 uM incubated for 4 to 5 days relative to control; format: functional, Mycobacteroides abscessus; details: time 4-5 day

| Structure (SMILES) | MIC50 [2] | MIC50 [4] | CC50 (RAW264.7 [5]) | inhibition [6] | inhibition [7] | I50 [8] | other results |
| --- | --- | --- | --- | --- | --- | --- | --- |
| CCCCCCCCCCC[C@@H](C[C@@H]1OC(=O)[C@H]1CCCCCC)OC(=O)[C@H]1CCCN1C(C)=O |  |  |  |  |  |  | IC50 [1]: 0.2 µM |
| CCCCCCCCCCC[C@@H](C[C@@H]1OC(=O)[C@H]1CCCCCC)OC(=O)[C@@H]1CCCN1C(C)=O |  |  |  |  |  |  | IC50 [1]: 0.2 µM |
| C[C@@H](O)[C@H]1C(=O)N2C(C(=O)O)=C(SCCNC=N)C[C@H]12 [IMIPENEM ANHYDROUS] | 11.3 µM (≈ 3.38 µg/mL) | 29.9 µM (≈ 8.95 µg/mL) |  |  |  |  | MIC50 [3]: 28.3 µM (≈ 8.47 µg/mL) |
| CCCCCCCCCC[C@H]1CC[P@@](=O)(OC)OC(C)=C1C(=O)OC | > 100 µM | > 100 µM | > 100 µM |  |  |  | MIC50 [3]: 65.3 µM (≈ 24.5 µg/mL) |
| CCCCCCCCCC[C@@H]1CC[P@@](=O)(OC)OC(C)=C1C(=O)OC | > 100 µM | > 100 µM | > 100 µM |  |  |  | MIC50 [3]: 29.3 µM (≈ 11 µg/mL) |
| CCCCCCCCCCOc1nn(-c2cccc(Oc3ccccc3)c2)c(=O)o1 |  |  |  | 94.2% | 91.5% | 0.67 molar excess |  |
| CCCCCCCCCCC[C@@H](C[C@@H]1OC(=O)[C@H]1CCCCCC)OC(=O)[C@H](CC(C)C)NC=O [ORLISTAT] |  |  |  | 87.6% | 26.8% | 7.1 molar excess | IC50 [1]: 3.8 µM |
| CCCCCCCCCCCCCCCCOP1(=O)OCCC(C(=O)OC)=C(C)O1 (stereo unspecified) | 12.7 µM (≈ 5.67 µg/mL) | 0.37 µM (≈ 0.165 µg/mL) | > 100 µM |  |  |  | MIC50 (RAW264.7 [9]): NE; MIC (Mycobacterium): 2 µg/mL (≈ 4.48 µM) |
| COc1nn(-c2ccc(Oc3ccccc3)cc2)c(=O)o1 | 88.2 µM (≈ 25.1 µg/mL) | > 200 µM |  | 79.4% | 60.8% | 0.93 molar excess | MIC50 [3]: 75.2 µM (≈ 21.4 µg/mL) |
| CCCCCCCCCCC[C@@H](C[C@@H]1OC(=O)[C@H]1CCCCCC)OC(=O)[C@@H]1CCCN1C=O |  |  |  |  |  |  | IC50 [1]: 0.2 µM |
| C=CCCCCCCC[C@H]1C(=O)O[C@@H]1CCCCCNC(=O)c1ccc(N(C)C)cc1 |  |  |  |  |  |  | INH [10]: 1.6 µM |
| NCC[C@H](O)C(=O)N[C@@H]1C[C@H](N)[C@@H](O[C@H]2O[C@H](CN)[C@@H](O)[C@H](O)[C@H]2O)[C@H](O)[C@H]1O[C@H]1O[C@H](CO)[C@@H](O)[C@H](N)[C@H]1O [AMIKACIN] | 3.9 µM (≈ 2.28 µg/mL) | 7.4 µM (≈ 4.33 µg/mL) |  |  |  |  |  |
| O=c1oc(OCCOCc2ccccc2)nn1-c1cccc(Oc2ccccc2)c1 |  |  |  | 90.2% | 88% | 0.72 molar excess |  |
| CCCCCCCCCCC1=C(C(=O)OC)CCOP(=O)(OC)O1 (stereo unspecified) | 85 µM (≈ 30.8 µg/mL) | 13.9 µM (≈ 5.04 µg/mL) |  |  |  |  | MIC50 (RAW264.7 [9]): NE |
| CCCCCCCCCCCCCCCCO[P@]1(=O)OC[C@@H]2COC(=O)C2=C(C)O1 |  |  | > 100 µM |  |  |  |  |
| CCCCCCCCOc1nn(-c2cccc(Oc3ccccc3)c2)c(=O)o1 |  |  |  | 86.6% | 83.2% | 0.71 molar excess |  |
| CCCCCCCCCCCC[C@@H]1CC[P@@](=O)(OC)OC(C)=C1C(=O)OC | > 100 µM | > 100 µM | > 100 µM |  |  |  | MIC50 [3]: 7.9 µM (≈ 3.18 µg/mL) |
| COc1nn(-c2ccccc2)c(=O)o1 | > 200 µM | > 200 µM |  | 81.8% | 34.4% | 10.9 molar excess | MIC50 [3]: 36.5 µM (≈ 7.01 µg/mL) |
| CCCCCCCCCCCC[C@H]1CC[P@@](=O)(OC)OC(C)=C1C(=O)OC | > 100 µM | > 100 µM | > 20 µM |  |  |  | MIC50 [3]: 2 µM (≈ 0.805 µg/mL) |
| CC(C)COc1nn(-c2cccc(Oc3ccccc3)c2)c(=O)o1 |  |  |  | 49.4% | 37.4% | 3.9 molar excess |  |

| Structure (SMILES) | MIC50 [2] | MIC50 [4] | CC50 (RAW264.7 [5]) | inhibition [6] | inhibition [7] | I50 [8] | other results |
| --- | --- | --- | --- | --- | --- | --- | --- |
| CCOc1nn(-c2cccc(Oc3ccccc3)c2)c(=O)o1 |  |  |  | 53.8% | 21.7% | 6.5 molar excess |  |
| O=c1oc(OCCOCc2ccccc2)nn1-c1ccccc1 |  |  | > 100 µM | 92.2% | 89% | 0.61 molar excess |  |
| CCCCC[C@H]1CC[P@@](=O)(OC)OC(C)=C1C(=O)OC |  |  | > 100 µM |  |  |  |  |
| O=c1oc(OCCOCc2ccccc2)nn1-c1ccc(Oc2ccccc2)cc1 |  |  | > 100 µM | 98.4% | 97% | 0.59 molar excess |  |
| CCCCCCOc1nn(-c2ccc(Oc3ccccc3)cc2)c(=O)o1 |  |  | > 100 µM | 77.2% | 38.7% | 2.9 molar excess |  |
| CCCCOc1nn(-c2cccc(Oc3ccccc3)c2)c(=O)o1 |  |  |  | 63.7% | 15.6% | > 40 molar excess |  |
| CCCCCCCCCCCCCCCCO[P@]1(=O)OC[C@H]2COC(=O)C2=C(C)O1 |  |  | > 100 µM |  |  |  |  |
| COCCOc1nn(-c2cccc(Oc3ccccc3)c2)c(=O)o1 |  |  |  | 93.7% | 92.4% | 0.69 molar excess |  |
| CO[C@H]1/C=C/O[C@@]2(C)Oc3c(C)c(O)c4c(O)c(c(/C=N/N5CCN(C)CC5)c(O)c4c3C2=O)NC(=O)/C(C)=C\C=C\[C@H](C)[C@H](O)[C@@H](C)[C@@H](O)[C@@H](C)[C@H](OC(C)=O)[C@@H]1C [RIFAMPIN] |  |  | 24 µM |  |  |  |  |
| CC(C)COc1nn(-c2ccccc2)c(=O)o1 |  |  | > 100 µM | 47.9% | 31.6% | 9.2 molar excess |  |
| CCCCCC(CC)Oc1nn(-c2cccc(Oc3ccccc3)c2)c(=O)o1 (stereo unspecified) |  |  |  | 94.8% | 89.6% | 0.73 molar excess |  |
| NNC(=O)c1ccncc1 [ISONIAZID] |  |  | > 150 µM |  |  |  |  |
| CCCCCCOc1nn(-c2cccc(Oc3ccccc3)c2)c(=O)o1 |  |  |  | 76.5% | 39.9% | 3.3 molar excess |  |
| CCCCCCOc1nn(-c2ccccc2)c(=O)o1 |  |  | > 100 µM | 38.8% | 35% | > 40 molar excess |  |
| CCCCCCCCCCCCOc1nn(-c2cccc(Oc3ccccc3)c2)c(=O)o1 |  |  |  | 90.4% | 88.7% | 0.77 molar excess |  |
| COc1nn(-c2cccc(Oc3ccccc3)c2)c(=O)o1 |  |  |  | 85.9% | 63.6% | 2.4 molar excess | MIC [11]: 50 µM (≈ 14.2 µg/mL) |
| CCCCCCCCCCCCCCCCC1=C(C(=O)OC)CCOP(=O)(OC)O1 (stereo unspecified) | 60 µM (≈ 26.8 µg/mL) | 6.9 µM (≈ 3.08 µg/mL) |  |  |  |  | MIC50 (RAW264.7 [9]): NE |
| CCCCCCCCCCC[C@@H](C[C@@H]1OC(=O)[C@H]1CCCCCC)OC(=O)[C@@H]1CSCN1C(C)=O |  |  |  |  |  |  | IC50 [1]: 0.2 µM |
| CCCCCCCCCCC[C@@H](C[C@@H]1OC(=O)[C@H]1CCCCCC)OC(=O)[C@H]1CCCN1C=O |  |  |  |  |  |  | IC50 [1]: 0.2 µM |
| CC(C)COc1nn(-c2ccc(Oc3ccccc3)cc2)c(=O)o1 | 33 µM (≈ 10.8 µg/mL) | 53.2 µM (≈ 17.4 µg/mL) | > 100 µM | 41.6% | 33.8% | > 40 molar excess | MIC50 [3]: < 30 µM; Activity [12]: 59% |
